# Measured values as given in patent US6525001B1, “Substituted pyrimidine and pyridine herbicides” (Mid-American Commercialization Corporation, priority 1997, dated 2003).
# Legend:
# Type in all cases: in vivo
# [1] = tested on: ivyleaf morningglory (Ipomoea hederacea); assay: Test C; parameters: key: 0 was no effect; 100 was complete control; details: PREEMERGENCE
# [2] = tested on: sandbur (Cenchrus echinatus); assay: Test E pre-/postemergence/post directed; parameters: key: 0 is no injury; 100 is complete control; details: PREEMERGENCE, Rate 32 g/ha
# How it was run: (§1)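 Injury scored visually on a 0–100 scale (100 = complete control) 13 to 21 days after treatment. Test chemicals, formulated with surfactant in non-phytotoxic solvent, were applied to soil within one day of planting, to plants at two to four leaves (three to twenty cm), or as directed spray at plant base.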
# [3] = tested on: purple nutsedge (Cyperus rotundus); assay: Test E pre-/postemergence/post directed; parameters: key: 0 is no injury; 100 is complete control; details: PREEMERGENCE
# How it was run: as §1
# [4] = tested on: purple nutsedge (Cyperus rotundus); assay: Test C; parameters: key: 0 was no effect; 100 was complete control; details: PREEMERGENCE
# [5] = tested on: hairy beggarticks (Bidens pilosa); assay: Test C; parameters: key: 0 was no effect; 100 was complete control; details: PREEMERGENCE
# [6] = tested on: common groundsel (Senecio vulgaris); assay: Test E pre-/postemergence/post directed; details: PREEMERGENCE, Rate 32 g/ha
# How it was run: as §1
# [7] = tested on: surinam grass (Brachiaria decumbens); assay: Test E pre-/postemergence/post directed; details: PREEMERGENCE
# How it was run: as §1
# [8] = tested on: johnson grass (Sorghum halepense); assay: Test E pre-/postemergence/post directed; details: PREEMERGENCE
# How it was run: as §1
# [9] = tested on: alexandergrass (Brachiaria plantaginea); assay: Test E pre-/postemergence/post directed; details: PREEMERGENCE
# How it was run: as §1
# [10] = tested on: pitted morningglory (Ipomoea lacunosa); assay: Test E pre-/postemergence/post directed; details: PREEMERGENCE
# How it was run: as §1
# [11] = tested on: wild poinsettia (Euphorbia heterophylla); assay: Test C; details: PREEMERGENCE
# [12] = tested on: surinam grass (Brachiaria decumbens); assay: Test C; details: PREEMERGENCE
# [13] = tested on: corn (Zea mays); assay: Test C; details: PREEMERGENCE
# [14] = tested on: field bindweed (Convolvulus arvensis); assay: Test C; parameters: key: 0 was no effect; 100 was complete control; details: PREEMERGENCE
smiles,measurement,setting,value
Cc1cnc(-n2ccc(C(F)(F)F)n2)nc1Cc1cccc(OC(F)(F)F)c1 [Compound 42],"Plant response rating, I. morningglory",[1]; Rate 35 g/ha,30
same,"Plant response rating, I. morningglory",[1]; Rate 70 g/ha,70
same,"Plant response rating, I. morningglory",[1]; Rate 140 g/ha,100
same,"Plant response rating, Sandbur",[2],0
same,"Plant response rating, Purple nutsedge",[3]; Rate 32 g/ha,20
same,"Plant response rating, Purple nutsedge",[3]; Rate 64 g/ha,30
same,"Plant response rating, Purple nutsedge",[3]; Rate 125 g/ha,30
same,"Plant response rating, Purple nutsedge",[3]; Rate 250 g/ha,30
same,"Plant response rating, Purple nutsedge",[4]; Rate 35 g/ha,0
same,"Plant response rating, Purple nutsedge",[4]; Rate 70 g/ha,0
same,"Plant response rating, Purple nutsedge",[4]; Rate 140 g/ha,0
same,"Plant response rating, H. beggarticks",[5]; Rate 35 g/ha,0
same,"Plant response rating, H. beggarticks",[5]; Rate 140 g/ha,90
same,"Plant response rating, Com. groundsel",[6],90
same,"Plant response rating, Surinam grass",[7]; Rate 32 g/ha,40
same,"Plant response rating, Surinam grass",[7]; Rate 64 g/ha,50
same,"Plant response rating, Johnsongrass",[8]; Rate 32 g/ha,10
same,"Plant response rating, Johnsongrass",[8]; Rate 64 g/ha,90
same,"Plant response rating, Johnsongrass",[8]; Rate 125 g/ha,90
same,"Plant response rating, Johnsongrass",[8]; Rate 250 g/ha,95
same,"Plant response rating, Alexandergrass",[9]; Rate 32 g/ha,20
same,"Plant response rating, Alexandergrass",[9]; Rate 64 g/ha,40
same,"Plant response rating, Alexandergrass",[9]; Rate 125 g/ha,90
same,"Plant response rating, Alexandergrass",[9]; Rate 250 g/ha,90
same,"Plant response rating, P. morninglory",[10]; Rate 64 g/ha,30
same,"Plant response rating, P. morninglory",[10]; Rate 125 g/ha,65
same,"Plant response rating, P. morninglory",[10]; Rate 250 g/ha,75
same,"Plant response rating, Wild poinsettia",[11]; Rate 35 g/ha,25
same,"Plant response rating, Wild poinsettia",[11]; Rate 70 g/ha,30
same,"Plant response rating, Wild poinsettia",[11]; Rate 140 g/ha,85
same,"Plant response rating, Surinam grass",[12]; Rate 35 g/ha,50
same,"Plant response rating, Surinam grass",[12]; Rate 70 g/ha,55
same,"Plant response rating, Surinam grass",[12]; Rate 140 g/ha,70
same,"Plant response rating, Corn",[13]; Rate 35 g/ha,5
same,"Plant response rating, Corn",[13]; Rate 70 g/ha,5
same,"Plant response rating, Corn",[13]; Rate 140 g/ha,5
same,"Plant response rating, Field bindweed",[14]; Rate 35 g/ha,95
same,"Plant response rating, Field bindweed",[14]; Rate 70 g/ha,100
same,"Plant response rating, Field bindweed",[14]; Rate 140 g/ha,100
